Experimental data taken from patent US7981903B2, “2-[2-{phenylamino}-1H-pyrrolo[2,3-D]pyrimidin-4-yl)amino] benzamide derivatives as IGF-1R inhibitors for the treatment of cancer” (GlaxoSmithKline LLC, priority 2007, dated 2011).

Tests used:
[1] = molecular target: T1, NIH-3T3 cells overexpressing human IR (Homo sapiens, UniProt P06213); test: IR cellular autophosphorylation (DELFIA); type: cell-based; details: 2 h compound, insulin 3 ug/ml for 15 minutes, IC50 category
T1 construct: expressed in transfected cells; host or cells: NIH-3T3 (mouse fibroblasts)
Procedure: NIH-3T3 cells overexpressing human IGF-1R or IR were plated in 96-well plates (10,000 cells/well) in culture media containing 10% fetal bovine serum and incubated at 37° C. in a 5% CO2 incubator. Twenty four hours post-plating, cells were treated with different concentrations of test compounds ranging from 30 uM to 1.5 nM. Two hours after compound addition, cells were stimulated with either human IGF-1 (30 ng/ml) or insulin (3 ug/ml) for 15 minutes. Cell lysates are analyzed for phosphorylated receptors using dissociation enhanced lanthanide fluor-immuno assay (DELFIA) with anti-IGF-1R (MAB391, R&D Systems, Minneapolis, Minn.) or anti-IRβ (sc-711, Santa Cruz Biotechnology, Santa Cruz, Calif.) capture antibody and europium-labeled anti-pTyr antibody (Eu-N1 PT66, Perkin Elmer, Waltham, Mass.) for detection. The fluorescence signal for cells treated with compounds was expressed as percent relative to 100% stimulation (IGF-1 or insulin stimulated signal).

human IGF1R (hIGF1R) = molecular target: T2, human IGF1R (hIGF1R) (Homo sapiens, UniProt P08069); test: TR-FRET kinase assay of purified hIGF1R; type: biochemical; details: activated hIGF1R 0.5 nM, 10 μM ATP, values given as pIC50 category, read-out: IGF-1R pIC50 (converted)
T2 construct: containing amino acid residues 957-1367 of human IGF1R; made in house; host or cells: Sf9 cells (baculovirus)

human IR (hIR) = molecular target: T3, human IR (hIR) (Homo sapiens, UniProt P06213); test: TR-FRET kinase assay of purified hIR; type: biochemical; details: activated hIR 0.5 nM, 10 μM ATP, values given as pIC50 category
T3 construct: containing amino acid residues 979-1382 of human IR; made in house; host or cells: Sf9 cells (baculovirus), same process as hIGF1R

[2] = molecular target: T4, NIH-3T3 cells overexpressing human IGF-1R (Homo sapiens, UniProt P08069); test: IGF-1R cellular autophosphorylation (DELFIA); type: cell-based
T4 construct: expressed in transfected cells; host or cells: NIH-3T3 (mouse fibroblasts)
Summary of the method: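 Receptor autophosphorylation measured by DELFIA, capturing IGF-1R or IRβ and detecting with europium anti-pTyr, reported as percent of IGF-1- or insulin-stimulated signal. Compounds (30 uM to 1.5 nM) added 2 h before ligand, then 15 min stimulation (IGF-1 30 ng/ml or insulin 3 ug/ml).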

ALK = ALK (Homo sapiens, UniProt Q9UM73); test: ALK enzyme assay (HTRF); type: biochemical; details: 0.25 nM ALK, 15.0 μM ATP, values given as pIC50 category
Summary of the method: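 Isolated ALK phosphorylates a biotinylated tyrosine peptide, 120 min at 20° C; anti-phosphotyrosine Eu-cryptate/streptavidin-XL665 HTRF read after 60 min with EDTA-containing detection mix.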

T1 sequence (P06213 28-1382): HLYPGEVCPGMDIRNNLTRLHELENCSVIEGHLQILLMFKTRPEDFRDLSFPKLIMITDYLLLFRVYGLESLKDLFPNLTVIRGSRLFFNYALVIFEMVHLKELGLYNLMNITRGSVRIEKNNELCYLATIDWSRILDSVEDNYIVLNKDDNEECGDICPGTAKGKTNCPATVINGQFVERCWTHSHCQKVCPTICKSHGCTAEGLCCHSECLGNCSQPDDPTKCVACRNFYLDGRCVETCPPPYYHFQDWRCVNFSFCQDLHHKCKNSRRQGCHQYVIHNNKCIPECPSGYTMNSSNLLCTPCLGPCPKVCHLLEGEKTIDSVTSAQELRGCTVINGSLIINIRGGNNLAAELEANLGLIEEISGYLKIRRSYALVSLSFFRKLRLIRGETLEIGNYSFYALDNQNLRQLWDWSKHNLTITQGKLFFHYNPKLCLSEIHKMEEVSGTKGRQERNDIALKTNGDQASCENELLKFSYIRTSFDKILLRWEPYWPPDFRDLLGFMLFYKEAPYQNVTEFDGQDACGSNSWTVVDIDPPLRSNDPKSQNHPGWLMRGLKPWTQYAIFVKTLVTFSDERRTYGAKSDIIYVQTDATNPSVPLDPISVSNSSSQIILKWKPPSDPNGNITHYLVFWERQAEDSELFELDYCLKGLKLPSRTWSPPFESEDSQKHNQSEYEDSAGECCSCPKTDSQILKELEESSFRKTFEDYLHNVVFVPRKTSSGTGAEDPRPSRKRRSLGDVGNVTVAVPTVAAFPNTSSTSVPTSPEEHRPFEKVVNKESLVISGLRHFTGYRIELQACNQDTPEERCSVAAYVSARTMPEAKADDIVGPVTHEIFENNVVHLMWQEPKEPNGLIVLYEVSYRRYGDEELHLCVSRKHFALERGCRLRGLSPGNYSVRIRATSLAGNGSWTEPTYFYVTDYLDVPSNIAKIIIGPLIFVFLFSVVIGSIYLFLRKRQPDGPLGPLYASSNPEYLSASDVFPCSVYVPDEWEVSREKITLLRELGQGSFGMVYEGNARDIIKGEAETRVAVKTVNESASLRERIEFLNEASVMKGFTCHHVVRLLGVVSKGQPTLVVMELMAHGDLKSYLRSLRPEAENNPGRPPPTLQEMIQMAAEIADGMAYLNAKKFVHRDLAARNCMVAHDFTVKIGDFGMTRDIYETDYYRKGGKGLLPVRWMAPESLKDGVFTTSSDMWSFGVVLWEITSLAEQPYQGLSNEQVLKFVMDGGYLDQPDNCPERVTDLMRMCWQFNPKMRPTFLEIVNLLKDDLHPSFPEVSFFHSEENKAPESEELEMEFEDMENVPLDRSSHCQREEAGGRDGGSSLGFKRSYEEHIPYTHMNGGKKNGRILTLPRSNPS
Sequence of ALK (Q9UM73 19-1620): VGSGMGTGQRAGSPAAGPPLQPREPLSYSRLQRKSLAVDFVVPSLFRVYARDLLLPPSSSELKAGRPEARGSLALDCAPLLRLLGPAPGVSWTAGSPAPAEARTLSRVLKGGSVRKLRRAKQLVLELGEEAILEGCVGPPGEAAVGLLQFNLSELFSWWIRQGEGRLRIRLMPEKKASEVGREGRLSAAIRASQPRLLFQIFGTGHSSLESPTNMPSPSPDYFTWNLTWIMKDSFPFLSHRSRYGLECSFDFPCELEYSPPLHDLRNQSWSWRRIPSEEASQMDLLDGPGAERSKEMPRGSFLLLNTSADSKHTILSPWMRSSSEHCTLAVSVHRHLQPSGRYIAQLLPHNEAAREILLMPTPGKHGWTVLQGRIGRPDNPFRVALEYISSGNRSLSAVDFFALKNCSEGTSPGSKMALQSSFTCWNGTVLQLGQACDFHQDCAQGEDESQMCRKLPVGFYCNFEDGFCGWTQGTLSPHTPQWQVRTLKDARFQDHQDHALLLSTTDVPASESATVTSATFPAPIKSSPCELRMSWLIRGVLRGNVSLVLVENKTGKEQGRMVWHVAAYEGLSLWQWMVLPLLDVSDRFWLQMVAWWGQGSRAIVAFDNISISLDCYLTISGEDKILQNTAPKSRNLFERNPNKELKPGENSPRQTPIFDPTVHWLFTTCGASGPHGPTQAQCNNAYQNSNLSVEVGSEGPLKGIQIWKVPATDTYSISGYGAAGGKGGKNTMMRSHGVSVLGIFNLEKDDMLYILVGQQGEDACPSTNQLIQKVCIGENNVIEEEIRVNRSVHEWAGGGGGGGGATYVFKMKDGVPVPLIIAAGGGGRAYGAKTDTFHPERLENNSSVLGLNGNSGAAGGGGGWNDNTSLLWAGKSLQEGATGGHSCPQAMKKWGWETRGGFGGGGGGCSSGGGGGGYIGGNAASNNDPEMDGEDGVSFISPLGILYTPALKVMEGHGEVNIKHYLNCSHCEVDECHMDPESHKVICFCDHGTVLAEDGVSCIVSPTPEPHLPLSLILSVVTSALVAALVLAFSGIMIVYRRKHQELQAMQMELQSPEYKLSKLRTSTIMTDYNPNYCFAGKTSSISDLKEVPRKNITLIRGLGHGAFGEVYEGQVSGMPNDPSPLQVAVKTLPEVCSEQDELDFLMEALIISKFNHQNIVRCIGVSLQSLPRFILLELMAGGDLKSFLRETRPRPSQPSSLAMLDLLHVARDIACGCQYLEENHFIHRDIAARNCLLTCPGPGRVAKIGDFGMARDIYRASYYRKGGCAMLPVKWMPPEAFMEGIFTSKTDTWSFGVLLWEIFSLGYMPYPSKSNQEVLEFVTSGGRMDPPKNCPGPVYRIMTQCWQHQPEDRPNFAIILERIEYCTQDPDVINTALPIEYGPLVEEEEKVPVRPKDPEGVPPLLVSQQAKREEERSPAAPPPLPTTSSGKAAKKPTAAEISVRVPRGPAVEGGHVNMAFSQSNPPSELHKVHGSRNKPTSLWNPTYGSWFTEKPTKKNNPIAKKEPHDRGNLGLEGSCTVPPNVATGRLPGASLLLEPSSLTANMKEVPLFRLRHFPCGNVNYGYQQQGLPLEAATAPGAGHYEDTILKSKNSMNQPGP
T3 sequence (P06213 979-1382): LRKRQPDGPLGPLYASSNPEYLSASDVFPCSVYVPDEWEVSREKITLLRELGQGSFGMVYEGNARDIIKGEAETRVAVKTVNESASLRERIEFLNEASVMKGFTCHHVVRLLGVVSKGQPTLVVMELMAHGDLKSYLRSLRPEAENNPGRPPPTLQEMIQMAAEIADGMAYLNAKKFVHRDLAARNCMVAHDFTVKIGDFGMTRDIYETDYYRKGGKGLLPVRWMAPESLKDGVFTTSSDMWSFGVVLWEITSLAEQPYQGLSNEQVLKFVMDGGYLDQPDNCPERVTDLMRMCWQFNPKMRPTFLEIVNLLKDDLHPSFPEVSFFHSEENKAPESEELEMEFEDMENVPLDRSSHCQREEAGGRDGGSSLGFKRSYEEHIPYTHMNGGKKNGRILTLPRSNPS
T4 sequence (P08069 31-1367): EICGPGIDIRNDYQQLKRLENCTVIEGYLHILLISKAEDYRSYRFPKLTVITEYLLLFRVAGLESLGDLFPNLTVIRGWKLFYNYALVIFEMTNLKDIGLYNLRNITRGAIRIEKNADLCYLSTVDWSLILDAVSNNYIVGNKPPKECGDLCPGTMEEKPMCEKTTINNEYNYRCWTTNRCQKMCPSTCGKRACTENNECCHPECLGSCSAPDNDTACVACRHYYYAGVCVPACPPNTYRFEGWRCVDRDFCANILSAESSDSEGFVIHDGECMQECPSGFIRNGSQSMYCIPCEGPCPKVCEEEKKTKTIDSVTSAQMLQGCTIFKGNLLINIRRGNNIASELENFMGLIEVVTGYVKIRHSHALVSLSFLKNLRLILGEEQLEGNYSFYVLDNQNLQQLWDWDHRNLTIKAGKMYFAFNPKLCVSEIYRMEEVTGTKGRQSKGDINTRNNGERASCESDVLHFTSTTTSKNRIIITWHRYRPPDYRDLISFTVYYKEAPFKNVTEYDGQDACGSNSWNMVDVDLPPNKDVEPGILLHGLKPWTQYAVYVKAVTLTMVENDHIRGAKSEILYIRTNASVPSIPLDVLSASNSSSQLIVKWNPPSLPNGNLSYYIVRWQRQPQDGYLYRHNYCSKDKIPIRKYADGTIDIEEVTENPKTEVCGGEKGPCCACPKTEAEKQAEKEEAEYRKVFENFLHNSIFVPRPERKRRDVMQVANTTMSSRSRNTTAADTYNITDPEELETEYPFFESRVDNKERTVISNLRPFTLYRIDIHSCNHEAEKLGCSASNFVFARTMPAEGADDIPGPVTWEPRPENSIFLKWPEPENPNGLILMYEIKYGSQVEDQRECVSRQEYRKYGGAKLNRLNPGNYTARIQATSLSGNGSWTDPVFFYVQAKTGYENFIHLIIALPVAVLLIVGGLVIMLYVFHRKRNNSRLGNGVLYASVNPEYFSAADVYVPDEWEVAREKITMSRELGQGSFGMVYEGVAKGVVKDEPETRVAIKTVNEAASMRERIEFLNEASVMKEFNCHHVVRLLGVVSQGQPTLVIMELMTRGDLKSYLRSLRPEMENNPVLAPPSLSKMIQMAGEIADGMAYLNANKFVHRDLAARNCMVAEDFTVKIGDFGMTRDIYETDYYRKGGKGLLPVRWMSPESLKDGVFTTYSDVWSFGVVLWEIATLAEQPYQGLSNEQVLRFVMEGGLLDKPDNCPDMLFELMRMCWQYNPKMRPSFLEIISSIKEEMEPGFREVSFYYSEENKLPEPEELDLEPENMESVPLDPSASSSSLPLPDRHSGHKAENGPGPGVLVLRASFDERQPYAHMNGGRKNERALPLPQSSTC
T2 sequence (P08069 957-1367): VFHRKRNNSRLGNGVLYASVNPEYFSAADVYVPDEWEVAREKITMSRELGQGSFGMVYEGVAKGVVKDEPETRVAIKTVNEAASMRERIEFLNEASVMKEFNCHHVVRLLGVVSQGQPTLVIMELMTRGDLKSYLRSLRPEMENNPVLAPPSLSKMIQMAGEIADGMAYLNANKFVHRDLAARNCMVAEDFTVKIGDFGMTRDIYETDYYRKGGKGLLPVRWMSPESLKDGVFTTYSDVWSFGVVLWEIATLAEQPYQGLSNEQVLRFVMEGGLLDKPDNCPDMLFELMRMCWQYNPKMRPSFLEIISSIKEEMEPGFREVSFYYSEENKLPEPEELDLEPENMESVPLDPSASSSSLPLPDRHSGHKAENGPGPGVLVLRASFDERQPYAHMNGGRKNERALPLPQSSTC

| SMILES | IC50 [1] [nM] | IC50 (human IGF1R (hIGF1R)) [nM] | IC50 (human IR (hIR)) [nM] | IC50 [2] [nM] | IC50 (ALK) [nM] |
| --- | --- | --- | --- | --- | --- |
| COc1cc(N2CCOCC2)ccc1Nc1nc(Nc2ccccc2C(N)=O)c2cc[nH]c2n1 [Example 12, 2-[(2-{[2-(methyloxy)-4-(4-morpholinyl)phenyl]amino}-1H-pyrrolo[2,3-d]pyrimidin-4-yl)amino]benzamide] | 100 to 500 | 1.26 to 3.98 | 0.251 to 1 | 100 to 500 | 0.251 to 1 |
| Cc1ccc(NC(=O)CN2CCCC2)cc1Nc1nc(Nc2ccccc2C(N)=O)c2cc[nH]c2n1 [Example 14, 2-{[2-({2-methyl-5-[(1-pyrrolidinylacetyl)amino]phenyl}amino)-1H-pyrrolo[2,3-d]pyrimidin-4-yl]amino}benzamide] | 100 to 500 | 1.26 to 3.98 | 0.251 to 1 | 100 to 500 | 1.26 to 3.98 |
| CCCN1CCC=C(c2ccc(Nc3nc(Nc4ccccc4C(=O)NC)c4cc[nH]c4n3)c(OC)c2)C1 [Example 23, N-methyl-2-[(2-{[2-(methyloxy)-4-(1-propyl-1,2,5,6-tetrahydro-3-pyridinyl)phenyl]amino}-1H-pyrrolo[2,3-d]pyrimidin-4-yl)amino]benzamide] | 100 to 500 | 1.26 to 3.98 | 0.251 to 1 | 100 to 500 | 0.251 to 1 |
| Cc1ccc(NC(=O)CN(C)C)cc1Nc1nc(Nc2ccccc2C(=O)NCc2ccc(F)cc2)c2cc[nH]c2n1 [Example 27, 2-{[2-({5-[(N,N-dimethylglycyl)amino]-2-methylphenyl}amino)-1H-pyrrolo[2,3-d]pyrimidin-4-yl]amino}-N-[(4-fluorophenyl)methyl]benzamide] | > 500 | 5.01 to 200 | 1.26 to 3.98 | > 500 | 5.01 to 200 |
| CCCN1CCC=C(c2ccc(Nc3nc(Nc4cccc(F)c4C(N)=O)c4cc[nH]c4n3)c(OC)c2)C1 [Example 41, 2-fluoro-6-[(2-{[2-(methyloxy)-4-(1-propyl-1,2,5,6-tetrahydro-3-pyridinyl)phenyl]amino}-1H-pyrrolo[2,3-d]pyrimidin-4-yl)amino]benzamide] | 100 to 500 | 1.26 to 3.98 | 1.26 to 3.98 | 100 to 500 | 0.251 to 1 |
| Cc1ccc(NC(=O)CN(C)C)cc1Nc1nc(Nc2ccc(F)cc2C(N)=O)c2cc[nH]c2n1 [Example 62, 2-{[2-({5-[(N,N-dimethylglycyl)amino]-2-methylphenyl}amino)-1H-pyrrolo[2,3-d]pyrimidin-4-yl]amino}-5-fluorobenzamide] | 100 to 500 | 1.26 to 3.98 | 0.251 to 1 | 100 to 500 | 5.01 to 200 |
| CCCN1CCC=C(c2ccc(Nc3nc(Nc4ccc(Cl)cc4C(N)=O)c4cc[nH]c4n3)c(OC)c2)C1 [Example 108, 5-chloro-2-[(2-{[2-(methyloxy)-4-(1-propyl-1,2,5,6-tetrahydro-3-pyridinyl)phenyl]amino}-1H-pyrrolo[2,3-d]pyrimidin-4-yl)amino]benzamide] | 100 to 500 | 0.251 to 1 | 0.251 to 1 | 100 to 500 | 0.251 to 1 |
| CCCN1CCC=C(c2ccc(Nc3nc(Nc4cc(Cl)ccc4C(N)=O)c4cc[nH]c4n3)c(OC)c2)C1 [Example 110, 4-chloro-2-[(2-{[2-(methyloxy)-4-(1-propyl-1,2,5,6-tetrahydro-3-pyridinyl)phenyl]amino}-1H-pyrrolo[2,3-d]pyrimidin-4-yl)amino]benzamide] | > 500 | 1.26 to 3.98 | 1.26 to 3.98 | 100 to 500 | 0.251 to 1 |
| CNC(=O)c1c(F)cc(Cl)cc1Nc1nc(Nc2cc3c(cc2OC)CCN3C(=O)CN(C)C)nc2[nH]ccc12 [Example 120, 4-chloro-2-[(2-{[1-(N,N-dimethylglycyl)-5-(methyloxy)-2,3-dihydro-1H-indol-6-yl]amino}-1H-pyrrolo[2,3-d]pyrimidin-4-yl)amino]-6-fluoro-N-methylbenzamide] | 100 to 500 | 0.251 to 1 | 0.251 to 1 | 100 to 500 | 0.251 to 1 |
| CNC(=O)c1c(F)cccc1Nc1nc(Nc2cc3c(cc2OC)C[C@H](C)N3C(=O)CN(C)C)nc2[nH]ccc12 [Example 251, 2-[(2-{[(2S)-1-(N,N-dimethylglycyl)-2-methyl-5-(methyloxy)-2,3-dihydro-1H-indol-6-yl]amino}-1H-pyrrolo[2,3-d]pyrimidin-4-yl)amino]-6-fluoro-N-methylbenzamide] | < 100 | 1.26 to 3.98 | 1.26 to 3.98 | < 100 | 0.251 to 1 |

Continued, values first:

| IC50 [1] [nM] | IC50 (human IGF1R (hIGF1R)) [nM] | IC50 (human IR (hIR)) [nM] | IC50 [2] [nM] | IC50 (ALK) [nM] | SMILES |
| --- | --- | --- | --- | --- | --- |
| 100 to 500 | 1.26 to 3.98 | 1.26 to 3.98 | 100 to 500 | 1.26 to 3.98 | CCCN1CCC=C(c2ccc(Nc3nc(Nc4cc5ccccc5cc4C(N)=O)c4cc[nH]c4n3)c(OC)c2)C1 [Example 29, 3-[(2-{[2-(methyloxy)-4-(1-propyl-1,2,5,6-tetrahydro-3-pyridinyl)phenyl]amino}-1H-pyrrolo[2,3-d]pyrimidin-4-yl)amino]-2-naphthalenecarboxamide] |
| 100 to 500 | 1.26 to 3.98 | 1.26 to 3.98 | 100 to 500 | 1.26 to 3.98 | CCCN1CCCC(c2ccc(Nc3nc(Nc4cccc(OC)c4C(N)=O)c4cc[nH]c4n3)c(OC)c2)C1 (stereo not shown) [Example 36, 2-(methyloxy)-6-[(2-{[2-(methyloxy)-4-(1-propyl-3-piperidinyl)phenyl]amino}-1H-pyrrolo[2,3-d]pyrimidin-4-yl)amino]benzamide] |
| 100 to 500 | 1.26 to 3.98 | 0.251 to 1 | < 100 | 0.251 to 1 | COc1cc(N2CCN(CC(C)C)CC2)ccc1Nc1nc(Nc2cc(F)ccc2C(N)=O)c2cc[nH]c2n1 [Example 80, 4-fluoro-2-{[2-({2-(methyloxy)-4-[4-(2-methylpropyl)-1-piperazinyl]phenyl}amino)-1H-pyrrolo[2,3-d]pyrimidin-4-yl]amino}benzamide] |
| 100 to 500 | 5.01 to 200 | 5.01 to 158 | 100 to 500 | 5.01 to 200 | COc1cc2c(cc1Nc1nc(Nc3cccc(F)c3C(N)=O)c3cc[nH]c3n1)N(C(=O)CN(C)C)[C@H](C)C2 [Example 248, 2-[(2-{[(2R)-1-(N,N-dimethylglycyl)-2-methyl-5-(methyloxy)-2,3-dihydro-1H-indol-6-yl]amino}-1H-pyrrolo[2,3-d]pyrimidin-4-yl)amino]-6-fluorobenzamide] |
| < 100 | 0.251 to 1 | 0.251 to 1 | < 100 | 1.26 to 3.98 | COc1cc2c(cc1Nc1nc(Nc3cccc(F)c3C(N)=O)c3cc[nH]c3n1)N(C(=O)CN(C)C)[C@@H](C)C2 [Example 249, 2-[(2-{[(2S)-1-(N,N-dimethylglycyl)-2-methyl-5-(methyloxy)-2,3-dihydro-1H-indol-6-yl]amino}-1H-pyrrolo[2,3-d]pyrimidin-4-yl)amino]-6-fluorobenzamide] |
| > 500 | – | 5.01 to 158 | > 500 | 5.01 to 200 | CNC(=O)c1c(F)cccc1Nc1nc(Nc2cc(N(C)C(=O)CN(C)C)c(C)cc2OC)nc2[nH]ccc12 [Example 254, 2-[(2-{[5-[(N,N-dimethylglycyl)(methyl)amino]-4-methyl-2-(methyloxy)phenyl]amino}-1H-pyrrolo[2,3-d]pyrimidin-4-yl)amino]-6-fluoro-N-methylbenzamide] |
